US10913738B2 (BRISTOL-MYERS SQUIBB COMPANY, priority 2017, dated 2021)
pIC50: −log10 of the molar value. Like-named read-outs stand apart in the source and are kept apart here.

Legend:
[1] = test system: MLKL phosphorylation in HT29-L23 human colorectal adenocarcinoma cells; experiment: MLKL Phosphorylation High-Content Assay; assay type: cell-based; details: Homo sapiens
How it was run: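 Cells incubated six hours at 37° C., then phospho-MLKL (S358) immunostained overnight at 4° C. and imaged by high-content microscopy. Phosphorylation quantified as mean circ-ring average intensity ratio; IC50 and Ymax from 4-parameter logistic fits.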

[2] = biological target: T1, His-GST-TVMV-hRIPK1(1-324) (Homo sapiens, UniProt Q13546); experiment: RIPK1 HTRF Binding Assay
T1 construct: The coding region of human RIPK1(1-324) flanked by NdeI site at 5′ end; made in house; host or cells: Spodoptera frugiperda (Sf9) insect cells, baculovirus
T1 sequence (Q13546 1-324): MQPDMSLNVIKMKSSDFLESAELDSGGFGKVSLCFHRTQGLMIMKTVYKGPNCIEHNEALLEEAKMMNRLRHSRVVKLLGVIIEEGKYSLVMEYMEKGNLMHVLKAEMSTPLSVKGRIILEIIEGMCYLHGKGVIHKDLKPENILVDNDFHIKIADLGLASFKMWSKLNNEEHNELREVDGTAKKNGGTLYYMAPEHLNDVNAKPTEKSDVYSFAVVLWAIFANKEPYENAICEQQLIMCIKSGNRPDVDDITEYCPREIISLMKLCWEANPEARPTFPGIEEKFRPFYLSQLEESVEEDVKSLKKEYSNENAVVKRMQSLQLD

[3] = x marks IC50 class 20-200 nM, read-out: pMLKL cell activity 20-200 nM
[4] = x marks IC50 class <20 nM, read-out: RIPK1 HTRF binding <20 nM
[5] = x marks IC50 class <20 nM, read-out: pMLKL cell activity <20 nM
[6] = x marks IC50 class >200 nM, read-out: pMLKL cell activity >200 nM
[7] = x marks IC50 class >200 nM, read-out: RIPK1 HTRF binding >200 nM
[8] = x marks IC50 class 20-200 nM, read-out: RIPK1 HTRF binding 20-200 nM

Row | Compound | pIC50 [1, 3] | pIC50 [2, 4] | pIC50 [2, 8] | other results
1 | COc1ncc(-c2ccn3nc(N)nc3c2)cc1C(=O)N(C)Cc1cccc(OC(F)(F)F)c1 [Example 162, 5-{2-amino-[1,2,4]triazolo[1,5-a]pyridin-7-yl}-2-methoxy-N-methyl-N-{[3-(trifluoromethoxy)phenyl]methyl}pyridine-3-carboxamide] | 6.70 to 7.70 | > 7.70 |  | 
2 | [2H]C([2H])(NC(=O)c1cc(-c2ccn3nc(N)nc3c2)c(C)nc1OC)c1cc(OC(F)(F)F)ccc1F [Example 222, 5-{2-amino-[1,2,4]triazolo[1,5-a]pyridin-7-yl}-N-{[2-fluoro-5-(trifluoromethoxy)phenyl](deutero)methyl}-2-methoxy-6-methylpyridine-3-carboxamide] |  | > 7.70 |  | pIC50 [1, 5]: > 7.70
3 | COc1cnc(-c2ccn3nc(N)nc3c2)cc1C(=O)NCc1cc(C(F)(F)F)ccc1F [Example 391, 2-(2-amino-[1,2,4]triazolo[1,5-a]pyridin-7-yl)-N-(2-fluoro-5-(trifluoromethyl)benzyl)-5-methoxyisonicotinamide] |  |  |  | pIC50 [1, 6]: < 6.70; pIC50 [2, 7]: < 6.70
4 | Cc1ncc(-c2ccn3nc(N)nc3c2)cc1C(=O)NCc1ccccc1OC1CCCCC1 [Example 239, 5-{2-amino-[1,2,4]triazolo[1,5-a]pyridin-7-yl}-N-{[2-(cyclohexyloxy)phenyl]methyl}-2-methylpyridine-3-carboxamide] |  | > 7.70 |  | pIC50 [1, 5]: > 7.70
5 | [2H]C([2H])(NC(=O)c1cc(-c2ccn3nc(N)nc3c2)cnc1Cl)c1cc(OC(F)(F)F)ccc1F [Example 171, 5-{2-amino-[1,2,4]triazolo[1,5-a]pyridin-7-yl}-2-chloro-N-{[2-fluoro-5-(trifluoromethoxy)phenyl](deutero)methyl}pyridine-3-carboxamide] | 6.70 to 7.70 |  | 6.70 to 7.70 | 
6 | COc1ncc(-c2ccn3nc(N)nc3c2)cc1C(=O)NCc1cccc(C(F)(F)F)c1 [Example 119, 5-{2-amino-[1,2,4]triazolo[1,5-a]pyridin-7-yl}-2-methoxy-N-{[3-(trifluoromethyl)phenyl]methyl}pyridine-3-carboxamide] |  |  | 6.70 to 7.70 | pIC50 [1, 6]: < 6.70
7 | Cc1nc(C)c(-c2ccn3nc(N)nc3c2)cc1C(=O)NCc1cc(OC(F)(F)F)ccc1F [Example 181, 5-{2-amino-[1,2,4]triazolo[1,5-a]pyridin-7-yl}-N-{[2-fluoro-5-(trifluoromethoxy)phenyl]methyl}-2,6-dimethylpyridine-3-carboxamide] |  | > 7.70 |  | pIC50 [1, 5]: > 7.70
8 | COc1ncc(-c2ccn3nc(N)nc3c2)cc1C(=O)NC(C)c1cc(OC(F)(F)F)ccc1F (single isomer, unassigned) [Example 89-1, 5-{2-amino-[1,2,4]triazolo[1,5-a]pyridin-7-yl}-N-{1-[2-fluoro-5-(trifluoromethoxy)phenyl]ethyl}-2-methoxypyridine-3-carboxamide] | 6.70 to 7.70 |  | 6.70 to 7.70 | 
9 | Cc1cnc(-c2ccn3nc(N)nc3c2)nc1C(=O)NCC[C@H](O)c1ccc(Cl)cc1 [Example 410, (S)-2-(2-amino-[1,2,4]triazolo[1,5-a]pyridin-7-yl)-N-(3-(4-chlorophenyl)-3-hydroxypropyl)-5-methylpyrimidine-4-carboxamide] | 6.70 to 7.70 |  | 6.70 to 7.70 | 
10 | CCCOc1ncc(-c2ccn3nc(N)nc3c2)cc1C(=O)NCc1ccccc1Sc1ccccc1CO [Example 63] | 6.70 to 7.70 | > 7.70 |  | 
11 | [2H]C([2H])([2H])[C@H](NC(=O)c1cc(-c2ccn3nc(N)nc3c2)cnc1OC)c1cc(C(F)(F)F)ccc1F [Example 347, (S)-5-(2-amino-[1,2,4]triazolo[1,5-a]pyridin-7-yl)-N-(1-(2-fluoro-5-(trifluoromethyl)phenyl)ethyl-2,2,2-d3)-2-methoxynicotinamide] | 6.70 to 7.70 |  | 6.70 to 7.70 | 
12 | COc1ncc(-c2ccn3nc(N)nc3c2)cc1C(=O)NCc1c(F)cccc1OCC1CC1 [Example 147, 5-{2-amino-[1,2,4]triazolo[1,5-a]pyridin-7-yl}-N-{[2-(cyclopropylmethoxy)-6-fluorophenyl]methyl}-2-methoxypyridine-3-carboxamide] |  | > 7.70 |  | pIC50 [1, 5]: > 7.70
13 | [2H]C([2H])(NC(=O)c1cc(-c2ccn3nc(N)nc3c2)c(C)nc1OC)c1cccc(C(F)(F)F)c1 [Example 335, 5-(2-amino-[1,2,4]triazolo[1,5-a]pyridin-7-yl)-2-methoxy-6-methyl-N-((3-(trifluoromethyl)phenyl)methyl-d2)nicotinamide] | 6.70 to 7.70 |  | 6.70 to 7.70 | 
14 | COc1ncc(-c2ccn3nc(N)nc3c2)cc1C(=O)NCc1cccc(OCC2CCC2)c1 [Example 46, 5-{2-Amino-[1,2,4]triazolo[1,5-a]pyridin-7-yl}-N-{[3-(cyclobutylmethoxy)phenyl]methyl}-2-methoxypyridine-3-carboxamide] |  |  | 6.70 to 7.70 | pIC50 [1, 6]: < 6.70
15 | Cc1ncc(-c2ccn3nc(N)nc3c2)cc1C(=O)NCc1ccccc1OC(F)(F)C(F)F [Example 244, 5-{2-amino-[1,2,4]triazolo[1,5-a]pyridin-7-yl}-2-methyl-N-{[2-(1,1,2,2-tetrafluoroethoxy)phenyl]methyl}pyridine-3-carboxamide] |  |  | 6.70 to 7.70 | pIC50 [1, 6]: < 6.70
16 | CCOc1ncc(-c2ccn3nc(N)nc3c2)cc1C(=O)NC[C@H]1C[C@@H]1COc1ccc(Br)cc1F [Example 273, 5-{2-amino-[1,2,4]triazolo[1,5-a]pyridin-7-yl}-N-{[(1S,2S)-2-[(4-bromo-2-fluorophenoxy)methyl]cyclopropyl]methyl}-2-ethoxypyridine-3-carboxamide] | 6.70 to 7.70 |  |  | pIC50 [2, 7]: < 6.70
17 | Cc1ncc(-c2ccn3nc(N)nc3c2)cc1C(=O)NCc1c(OCC2CC2)ccc(F)c1F [Example 304, 5-(2-amino-[1,2,4]triazolo[1,5-a]pyridin-7-yl)-N-(6-(cyclopropylmethoxy)-2,3-difluorobenzyl)-2-methylnicotinamide] | 6.70 to 7.70 | > 7.70 |  | 
18 | COc1nc(C)c(-c2ccn3nc(N)nc3c2)cc1C(=O)NCc1cc(F)ccc1OC(F)(F)F [Example 329, 5-(2-amino-[1,2,4]triazolo[1,5-a]pyridin-7-yl)-N-(5-fluoro-2-(trifluoromethoxy)benzyl)-2-methoxy-6-methylnicotinamide] | 6.70 to 7.70 | > 7.70 |  | 
19 | Cc1cnc(-c2ccn3nc(N)nc3c2)cc1C(=O)NCc1cc(OC(F)(F)F)ccc1F [Example 394, 2-(2-amino-[1,2,4]triazolo[1,5-a]pyridin-7-yl)-N-(2-fluoro-5-(trifluoromethoxy)benzyl)-5-methylisonicotinamide] | 6.70 to 7.70 | > 7.70 |  | 
20 | COc1nc(C)c(-c2ccn3nc(N)nc3c2)cc1C(=O)NCc1cccc(F)c1OC1C[C@@H](C)O[C@@H](C)C1 (stereo partly drawn) [Example 356, 5-(2-amino-[1,2,4]triazolo[1,5-a]pyridin-7-yl)-N-(2-(((2R,6S)-2,6-dimethyltetrahydro-2H-pyran-4-yl)oxy)-3-fluorobenzyl)-2-methoxy-6-methylnicotinamide] |  | > 7.70 | 6.70 to 7.70 | pIC50 [1, 6]: < 6.70
21 | Cc1ncc(-c2ccn3nc(N)nc3c2)cc1C(=O)NCc1cccnc1OCC1CCCC1 [Example 231, 5-{2-amino-[1,2,4]triazolo[1,5-a]pyridin-7-yl}-N-{[2-(cyclopentylmethoxy)pyridin-3-yl]methyl}-2-methylpyridine-3-carboxamide] |  |  | 6.70 to 7.70 | pIC50 [1, 6]: < 6.70
22 | Cc1cnc(-c2ccn3nc(N)nc3c2)nc1C(=O)NCC[C@@H](O)c1ccc(Cl)cc1 [Example 408, (R)-2-(2-amino-[1,2,4]triazolo[1,5-a]pyridin-7-yl)-N-(3-(4-chlorophenyl)-3-hydroxypropyl)-5-methylpyrimidine-4-carboxamide] | 6.70 to 7.70 |  | 6.70 to 7.70 | 
23 | Cc1ncc(-c2ccn3nc(N)nc3c2)cc1C(=O)NCc1cc(F)cc(F)c1OCC1CC1 [Example 235, 5-{2-amino-[1,2,4]triazolo[1,5-a]pyridin-7-yl}-N-{[2-(cyclopropylmethoxy)-3,5-difluorophenyl]methyl}-2-methylpyridine-3-carboxamide] | 6.70 to 7.70 | > 7.70 |  | 
24 | COc1ncc(-c2ccn3nc(N)nc3c2)cc1C(=O)N1CCC[C@@H](Cc2cccc(F)c2)C1 [Example 114, 7-{5-[(3S)-3-[(3-fluorophenyl)methyl]piperidine-1-carbonyl]-6-methoxypyridin-3-yl}-[1,2,4]triazolo[1,5-a]pyridin-2-amine] |  | > 7.70 |  | pIC50 [1, 5]: > 7.70
25 | COc1ncc(-c2ccn3nc(N)nc3c2)cc1C(=O)NCc1ccc(F)cc1OC(=O)N(C)C [Example 103] |  |  | 6.70 to 7.70 | pIC50 [1, 6]: < 6.70
26 | COc1ncc(-c2ccn3nc(N)nc3c2)cc1C(=O)N1CCCC(Cc2cccc(F)c2)C1 (centres unmarked) [Example 118, 7-(5-{3-[(3-fluorophenyl)methyl]piperidine-1-carbonyl}-6-methoxypyridin-3-yl)-[1,2,4]triazolo[1,5-a]pyridin-2-amine] | 6.70 to 7.70 |  | 6.70 to 7.70 | 
